Experimental data published in patent US20070254899A1, “Soluble salts of thieno[2,3-d]pyrimidine derivatives” (Dynogen Pharmaceuticals, Inc., priority 2006, published 2007).
Values joined by “and” are separate entries in the source; they are usually repeats but may differ in a detail not shown here. Equal values may be shown once. Where a name gives a salt, the structure may show the parent alone. Each block holds one molecule with its values, some of them ahead of it.

Experiments:
[1] = Storage at 40° C./75% RH (XRPD, HPLC purity, colour); assay type: physicochemical
[2] = GVS (gravimetric vapour sorption), single cycle; assay type: physicochemical
Protocol: (§1) Form I was characterized by pKa, LogP, LogPion and LogD determination and prediction, XRPD before and after storage at 40° C./75% RH for 4 weeks, PLM, DSC and TGA, ^1HNMR, solubility in water with pH measurement, HPLC purity before and after storage at 40° C./75% RH for 4 weeks, water content, GVS with XRPD and purity analysis after measurement, and VT-XRPD.
This weight increase was not associated with any significant hysteresis between the adsorption and desorption cycles.

[3] = assay type: physicochemical
Protocol: as §1
As expected from the predicted values, the compound is suitable for a mono salt screen and should form strong stable salts.

[4] = Protocol: The suspension was then equilibrated at 25° C. for 24 hours followed by a pH check and filtration through a glass fibre C 96 well plate. […] HPLC using a generic 5 minute method was used to quantify the amount of sample in solution with reference to a standard dissolved in DMSO at 0.1 mg/ml. Various volumes of the standard, diluted and undiluted tests were injected. […] If sufficient solid remained in the filter plate the XRPD was normally checked for phase changes, hydrate formation, amorphization, crystallization and other changes.
[5] = assay type: physicochemical; remark: listed apart in the source
Protocol: as §1
LogP, LogPion and LogD values were measured by using different ratios of 0.1 5M KCl(Aq) to 1-octanol, with refinement of a multiset of the data. The measured LogP, 3.96, is in good agreement with the predicted values.

ferrets = assay: Cisplatin-induced emesis in the ferret; assay type: in vivo, Mustela putario furo
Protocol: The ability of MCI-225 to reduce retching and vomiting in an accepted model of cytotoxin-induced emesis in the ferret was assessed. Specifically, the experiments described herein investigated the effect of MCI-225 on retching and vomiting induced by cisplatin. Ondansetron was used as a positive control in the model, in view of its known antiemetic activity. Adult male ferrets (Mustela putario furo) weighing 1200-1880 g were purchased from Triple F Farms (Sayre, Pa.) and housed in individual cages at standardized conditions (12:12 h light/dark cycle and 21-23° C.). Prior to the experiments, the ferrets were allowed a 7-10 day acclimatization period to the animal facility. The ferrets were fed a carnivore diet with free access to food and water throughout the course of the study. The use of the ferret model of emesis and the drug treatment were preapproved in accordance with facility standards. A cisplatin solution was prepared by adding preheated (70° C.) saline to cisplatin powder (Sigma-Aldrich Co.) and stirring or sonicating at 40° C. until dissolved. Following administration of the cisplatin and either MCI-225, ondansetron or vehicle alone, the occurrence of retching and vomiting was monitored for a period of 6 hours. Retching was defined as the number of forceful rhythmic contractions of the abdomen occurring with the animal in characteristic posture, but not resulting in the expulsion of upper gastrointestinal tract contents (Watson et al., British Journal of Pharmacology, 115(1): 84-94 (1994)). Vomiting was defined as the forceful oral expulsion of upper gastrointestinal contents. The latency of the retching or vomiting response and the number of episodes were recorded for each animal and summarized for each experimental group (Wright et al., Infect. Immun., 68(4): 2386-9 (2000)). Following one hour of acclimation to the observation cage, ferrets received an intraperitoneal (i.p.) injection of cisplatin (5 mg/kg in 5 mL) followed in about 2 minutes by i.p. injection of a single dose of MCI-225 or ondansetron (Rudd and Naylor, Eur. J. Pharmacol., 322: 79-82 (1997)). Dose-response effects of MCI-225 dosed at 1, 10 and 30 mg/kg i.p. in a 0.5 mL/kg solution or ondansetron dosed at 5 and 10 mg/kg i.p. in a 0.5 mL/kg solution were studied. Each animal received a single-dose drug treatment. In addition, three animals received an initial dose (30 mg/kg i.p.) and a second MCI-225 injection (30 mg/kg i.p.) 180 minutes following the initial dose. […] All groups were randomized.

rats [6] = assay: Small Intestinal Transit Rodent Model (charcoal meal); assay type: in vivo, rat; conditions: for Small intestinal transit, Mean (% of total small intestinal length): 15-min test period
Protocol: Following an overnight fast, rats were brought to the laboratory in their home cages and received an i.p. injection of one of the following: […] Control rats received no treatment. The treated rats were placed back in the home cages and after 30 min, were fed a 2 mL charcoal meal via an oral gavage. Small intestinal transit was measured following 15 min test-period. Each rat was placed briefly in a glass chamber with IsoFlo for anesthesia and sacrificed. The stomach and the small intestine were removed and the total length of the small intestine was measured. Transit was then measured as the distance that the charcoal meal had traveled along the small intestine and expressed as % of the total length. Animals were randomly assigned to experimental groups and experiments were performed as illustrated in Table 3. Ondansetron was supplied from APIN Chemicals LTD. […] MCI-225 was provided by Mitsubishi Pharma Corp. All drugs were dissolved in a vehicle of 100% propylene glycol (1,2-Propanediol) by sonicating for 10 min. Propylene glycol was obtained from Sigma Chemical Co. Ondansetron, a 5-HT3-receptor antagonist was dosed i.p. at 1, 5, and 10 mg/kg. […] All doses were delivered in a final volume of 200 μL. Animals in the vehicle control group received 200 μL of 100% Propylene glycol and animals in the normal control group were untreated. Small intestinal transit in rats was investigated by the passage of a charcoal meal along the small intestine during a defined time period (15-min). The animals were deprived of food for 12-16 hrs prior to the experiments. Rats were given a charcoal meal (a mixture of charcoal, gum arabic, and distilled water) as a 2 mL oral gavage and were sacrificed after a 15-min test period. The distance traveled by the charcoal meal was quantified as a percent of the small intestinal length, using the following equation: Transit (%)=cm traveled by meal/cm total small intestinal length×100 […] Statistical analysis was performed to determine mean, standard error to the mean and standard deviation for each group (See Table 3). Differences between individual dose groups within treatments and comparisons between drug-treated and vehicle-treated groups were determined using an unpaired t test considering that when % is used as a relative unit, t-statistic is relevant. In all cases p<0.05 was considered statistically significant.

rats [7] = assay: Visceromotor response to colorectal distension, acetic acid-induced colonic hypersensitivity; assay type: in vivo, rat; conditions: for Visceromotor response (number of abdominal contractions) to colorectal distension vs vehicle: all doses tested i.p. (ondansetron 1, 5, 10; nisoxetine 3, 10, 30 mg/kg)
Protocol: A 10 min recovery was allowed between distensions.
Adult male rats were used in the study.
Ten minute recovery periods were allowed following each distension.
Statistical significance of the treatment groups was assessed using one-way ANOVA followed by Tukey post-test. […] (*) p<0.05, (**) p<0.01, (***) p<0.001

rats [8] = assay: Water avoidance stress (WAS) model of increased colonic transit, fecal pellet output; assay type: in vivo, rat; conditions: for WAS-induced fecal pellet output in 1 hour: all doses tested i.p. (MCI-225, nisoxetine 3, 10, 30; ondansetron 1, 5, 10 mg/kg)
Protocol: Ondansetron (5-HT3 receptor antagonist), nisoxetine (NARI) and a combination of ondansetron and nisoxetine were used as comparison compounds. The model provides a method of evaluating the effectiveness of a compound in a specific patient group of IBS sufferers where stress induced colonic motility is considered a significant contributing factor.
Fecal pellet output was measured by counting the total number of fecal pellets produced during 1 hour of WAS.
All rats underwent sham stress (I-hour in stress chamber without water) for 2-4 consecutive days before undergoing WAS (sham was performed until rats produced 0-1 pellet per hour for 2 consecutive days). At the end of the 1-hour stress period, the fecal pellets were counted and recorded.
WAS causes an acceleration of colonic transit, which can be quantified by counting the number of fecal pellets, produced during the stress procedure. Rats were placed for 1-hour into a stress chamber onto a raised platform 7.5 cm×7.5 cm×9 cm (L×W×H) in the center of a stress chamber filled with room temperature water 8 cm in depth.
Control drugs for this study were ondansetron and nisoxetine. Ondansetron was supplied from APIN Chemicals LTD. Nisoxetine was supplied by Tocris. […] All drugs and the vehicle were administered as an i.p. injection in a volume of 0.2 mL.
Statistical significance was assessed using one-way ANOVA followed by Tukey post-test. Statistical differences were compared between the WAS groups and the sham stress group and was considered significant if p<0.05. (*) p<0.05, (**) p<0.01, (***) p<0.001

[9] = 30 mg/kg b.i.d, i.p., 180-min interval

Appearance of material surface after storage ([1]; 4 weeks at 40° C./75% RH, ambient light): gone yellow | HPLC purity after storage ([1]; 4 weeks at 40° C./75% RH, ambient light, initial purity 100%): 99.0% | XRPD pattern after storage ([1]; 40° C./75% RH, four weeks): unchanged | GVS total weight increase ([2]; between 0 and 90% RH): 5.0% | GVS weight increase ([2]; between 20% and 30% RH, equivalent to 1.0 moles of water): about 4.8% | pKa (basic) [3]: 8.64 | pKa of second basic centre [3]: 0.81 | Aqueous solubility [4]: 2100 µg/mL | Aqueous solubility, equivalent as the free base [4]: 1700 µg/mL | pH after solubility equilibration [4]: 6.33 | LogP [5]: 3.96 | LogPion [5]: 1.41 | LogD ([5]; pH 7.4): 2.72
Molecule: 4-(2-fluorophenyl)-6-methyl-2-(piperazin-1-yl)thieno[2,3-d] pyrimidine hydrochloride [MCI-225]

Molecule: Cc1cc2c(-c3ccccc3F)nc(N3CCNCC3)nc2s1 [MCI-225, 4-(2-fluorophenyl)-6-methyl-2-(piperazin-1-yl)thieno[2,3-d] pyrimidine hydrochloride]
Latency (ferrets; 1 mg/kg i.p.): 186 ± 35 min | Retches (360 min) (ferrets; 1 mg/kg i.p.): 30.4 ± 9.1 | Total Events (ferrets; 1 mg/kg i.p.): 32.9 ± 9.8 | Vomits (360 min) (ferrets; 1 mg/kg i.p.): 2.5 ± 0.7 | Latency (ferrets; 10 mg/kg i.p.): 192 ± 57 min | Retches (360 min) (ferrets; 10 mg/kg i.p.): 22.9 ± 10.3 | Total Events (ferrets; 10 mg/kg i.p.): 25.5 ± 11.1 | Vomits (360 min) (ferrets; 10 mg/kg i.p.): 2.6 ± 1.0 | Latency (ferrets; [9]): 360 ± 0 min | Retches (360 min) (ferrets; [9]): 0.0 ± 0.0 | Total Events (ferrets; [9]): 0.0 ± 0.0 | Vomits (360 min) (ferrets; [9]): 0.0 ± 0.0 | Latency (ferrets; 30 mg/kg i.p.): 287 ± 38 min | Retches (360 min) (ferrets; 30 mg/kg i.p.): 3.3 ± 2.2 | Total Events (ferrets; 30 mg/kg i.p.): 4.0 ± 2.6 | Vomits (360 min) (ferrets; 30 mg/kg i.p.): 0.7 ± 0.5 | Small intestinal transit, Mean (% of total small intestinal length) (rats [6]; 3 mg/kg i.p.): 30.1% | Small intestinal transit, Mean (% of total small intestinal length) (rats [6]; 10 mg/kg i.p., hydrochloride): 4.2±2.6% and 4.2% | Small intestinal transit, Mean (% of total small intestinal length) (rats [6]; 30 mg/kg i.p.): 8.8% | Animals in which the visceromotor response to CRD was eliminated (rats [7]; 30 mg/kg i.p., acetic acid sensitized rats): 50 % of the animals

Molecule: CNCCC(Oc1ccccc1OC)c1ccccc1 (centres unmarked) [Nisoxetine]
Animals with charcoal meal completely retained in the stomach (rats [6]; 30 mg/kg i.p.): 4 out of 5 | Small intestinal transit (rats [6]; 30 mg/kg i.p.): almost completely inhibited the transit | Small intestinal transit (rats [6]; 3 or 10 mg/kg i.p.): tendency to decrease small intestinal transit | Fecal pellets produced during WAS vs vehicle treated group (rats [8]; 10 and 30 mg/kg i.p.): significantly fewer fecal pellet produced | WAS-induced fecal pellet output in 1 hour (rats [8]): reduced by all doses | Behavior in the home cage during the experiments (rats [7]; 30 mg/kg i.p.): increased exploratory behavior | Visceromotor response (number of abdominal contractions) to colorectal distension vs vehicle (rats [7]): no significant effect

Molecule: Cc1nccn1CC1CCc2c(c3ccccc3n2C)C1=O (centres unmarked) [Ondansetron]
Latency of the emetic response following cisplatin (ferrets; all doses tested i.p.): increase in the latency | Emetic events (retches and vomits) induced by cisplatin (ferrets; all doses tested i.p. (ondansetron 5, 10; MCI-225 1, 10, 30 mg/kg)): dose-dependently reduced the number of emetic events | Small intestinal transit vs vehicle (rats [6]; all doses tested i.p. (MCI-225 3, 10, 30; ondansetron 1, 5, 10 mg/kg)): significant reduction in small intestinal transit | WAS-induced fecal pellet output in 1 hour (rats [8]): dose-dependent inhibition | Visceromotor responses at moderate and high intraluminal pressure (rats [7]; 10 mg/kg i.p., 30 and 60 mmHg): did not abolish the responses | Behavioral activity of the rats (rats [7]; 1, 5 or 10 mg/kg i.p.): No significant changes in the behavioral activity | Visceromotor response (number of abdominal contractions) to colorectal distension vs vehicle (rats [7]): dose-dependent decrease in the number of abdominal contractions
